# Entries after “also recorded” stand apart in the source; their conditions may differ.
# Tests used:
# Type in all cases: cell-based, human
# pre-stasis HMEC [1] = assay: Long-term growth of pre-stasis HMEC: total population doublings (PD) prior to stasis; settings: for total PD with oxytocin added to M85: oxytocin added at primary culture or passage 2
# Method: See FIG. 7, where the increased PD shown by HMEC from specimen 184, batch ⋄, is also seen in HMEC obtained from the 2 other donors tested, 48R, batch T, and 240L, batch B. Specimen 240L was grown only in M85 with oxytocin from primary organoids. Specimen 48R was grown in M85±oxytocin from primary organoids. For comparison, growth of specimen 184 in MM is shown. 184 HMEC batch ⋄ and 48RT+oxytocin were grown in 20% O2. The other cultures were grown in 3% O2.
# HMEC placed in a medium containing ˜1% serum and conditioned media (MM) have active growth for ˜15-30 PD; cells grown in a serum-free medium (MCDB170) show active proliferation for ˜10-20 PD; HMEC grown in MM in a low oxygen environment (3% vs. 20%) grow for an additional ˜4 PD.
# (§1) Short-term growth assays are done by measuring 24 hr labeling index (LI) at midconfluence and p16 expression and cell numbers at confluence in different media (as shown in FIG. 13). […] Other assays will transfer growing populations a few passages before stasis to media lacking specific components and assay LI and p16 (as shown in FIG. 12).
# p16 protein = assay: Immunohistochemical staining for p16 protein and labeling index (LI) in pre-stasis HMEC; settings: 184 HMEC in M85, 48 days post-seeding, 20% O2
# From the text: Note the gradually increasing expression of p16 with passage and the gradual reduction in the growing population. Note also the reciprocity between positive labeling of the small cell population with BrdU and the positive staining of the larger cell population for p16 expression.
# Referring now to FIGS. 3-5, which show pre-stasis growth of 184 HMEC in different media and immunohistochemical staining for p16 protein. 184 HMEC were started in M85 and subcultured at passage 2 into M85 with cholera toxin with or without oxytocin, in 20% O2. […] Note the large cells staining for p16 with the small cells still negative for p16 but positive for LI (indicative of DNA synthesis).
# as §1
# pre-stasis HMEC [2] = assay: Growth of pre-stasis HMEC on different substrates; settings: compared with plastic
# Method: Referring to FIG. 18, 184 HMEC, batch f, were grown in MM in primary culture and switched to M85 at passage 2. At passage 4 they were switched to M87 and grown on plastic (♦), laminin on plastic (▪), or laminin on LUMOX dishes (▴) (which allow the cells to grow on a gas-permeable substrate).
# Referring to FIG. 19, pre-stasis 48RT HMEC were grown from primary culture in M85+oxytocin and switched at passage 6 to growth on laminin on plastic or plastic alone.
Molecule,growth conditions at the lower oxytocin concentration (pre-stasis HMEC [1]; 0.1 nM compared with 1.0 nM oxytocin),PD potential in the presence of oxytocin (pre-stasis HMEC [1]; 184 HMEC in M85 with or without oxytocin),"increase in population doublings by oxytocin (pre-stasis HMEC [1]; M85 base medium, about 45 PD to about 60 PD) [%]",total PD with oxytocin added to M85 (pre-stasis HMEC [1]; M85 base medium),"total PD with oxytocin added to M85 (pre-stasis HMEC [1]; M85 base medium, listed as Oxytocin)",p16 expression with oxytocin compared to without (p16 protein),proliferation as the cells approach stasis (pre-stasis HMEC [2])
CC[C@H](C)[C@@H]1NC(=O)[C@H](Cc2ccc(O)cc2)NC(=O)[C@@H](N)CSSC[C@@H](C(=O)N2CCC[C@H]2C(=O)N[C@@H](CC(C)C)C(=O)NCC(N)=O)NC(=O)[C@H](CC(N)=O)NC(=O)[C@H](CCC(N)=O)NC1=O [oxytocin],provided better growth conditions than 1.0 nM,greatly increased PD potential; also recorded: significant increase in total PD,33,around 60 PD,up to 60 PD,lower level of p16 expression,–
laminin,–,–,–,–,–,–,more proliferation occurred

# From US9376662B2, “Increasing cell culture population doublings for long-term growth of finite life span human cell cultures” (The Regents of the University of California, priority 2006, dated 2016)
